Experimental data as given in patent US20230119082A1, “(AZIRIDINYL HYDROXY)-FUNCTIONAL ORGANIC COMPOUNDS” (COVESTRO (NETHERLANDS) B.V., priority 2020, published 2023).

Legend:
[1] = tested on: Bscl2-GFP; test: in vitro; conditions: mouse; for fold induction at 3 h / fold induction at 24 h: −fold induction Bscl 2
Method: (§1) In the context of the specification, the genotoxicity is measured according to the ToxTracker® assay (Toxys, Leiden, the Netherlands) as described in the Examples.
(§2) The genotoxicity was determined according to the ToxTracker® assay (Toxys, Leiden, the Netherlands) as described below.
(§3) This methodology uses a two-step approach.
(§4) Positive reference treatment with cisplatin (DNA damage) was included in all experiments. Metabolic was evaluated by the addition of S9 liver extract. […] Only GFP expression in single intact cells is determined. Mean GFP fluorescence and cell concentrations in each well are measured, which is used for cytotoxicity assessment. Data were analyzed using ToxPlot software (Toxys, Leiden, the Netherlands).

[2] = tested on: Rtkn-GFP; test: in vitro; conditions: mouse
Method: as §1, §2, §3, §4

Row | SMILES | fold induction at 3 h [1] | fold induction at 24 h [1] | −fold induction Bscl 2 ([1]; 3 h) | fold induction at 3 h [2] | fold induction at 24 h [2]
1 | CC1CN1CC(O)CN(Cc1cccc(CN(CC(O)CN2CC2C)CC(O)CN2CC2C)c1)CC(O)CN1CC1C (stereo not drawn) [Example 2C] | 1.3 | 1.3 |  |  | 
2 | CC1CN1CC(O)COC(=O)NCCCCCCn1c(=O)n(CCCCCCNC(=O)OCC(O)CN2CC2C)c(=O)n(CCCCCCNC(=O)OCC(O)CN2CC2C)c1=O (stereo not drawn) [Example 3] | 1.2 | 1.1 | 1.5 fold | 1.1 | 1.2
3 | CC1CN1CC(O)COc1ccc(C(C)(C)c2ccc(OCC(O)CN3CC3C)cc2)cc1 (stereo not drawn) [Example 4C] | 1.1 | 1.1 |  |  | 
4 | CC1CN1CC(O)COc1ccc(N(CC(O)CN2CC2C)CC(O)CN2CC2C)cc1 (stereo not drawn) [Example 3C] | 1.2 | 1.1 |  |  | 1.7
